Measured values: patent US5047397A, “Linear analogs of atrial natriuretic peptides” (California Biotechnology Inc., priority 1988, dated 1991)
*1 amine or outer side, *2 acyl side, *3 side chain or, on linkers, in order; H or OH if unused. Where a SMILES comes first, the peptide text is derived from it. Bridges are numbered along the chain shown (N, C = ends). [ ]: non-standard residue; d: D form. The star is where a group is joined. X8 = N=C(N)NCCC[C@@H](C(=O)[*:2])N(CC1CCN([*:3])CC1)[*:1]; Acetyl(1-adamantyl) = O=C(CC12CC3CC(CC(C3)C1)C2)*; Acetyl(2-naphthyloxy) = O=C(COc1ccc2ccccc2c1)*; Acetyl(2-naphthyl) = O=C(Cc1ccc2ccccc2c1)*; X7 = O=C(CN1CCC(C(=O)*)CC1)c1ccc2ccccc2c1; Cyclohexylacetyl = O=C(CC1CCCCC1)*; NH(2S-methylbutyl) = CC[C@H](C)CN*; 2Naphthoyl = O=C(c1ccc2ccccc2c1)*; Hydrocinnamoyl = O=C(CCc1ccccc1)*; X1 = O=C(Cc1ccc(N[*:1])cc1)[*:2]; tBuAla = CC(C)(C)C[C@H](N)C(=O)O; Met(O) = CS(=O)CC[C@H](N)C(=O)O; Phg = N[C@H](C(=O)O)c1ccccc1; Tle = CC(C)(C)[C@H](N)C(=O)O; 4Abz = Nc1ccc(C(=O)O)cc1; Inp = O=C(O)C1CCNCC1; Ava = NCCCCC(=O)O; GABA = NCCCC(=O)O

Target: T1, specific ANP receptor sites on BASM or BAE cells (Bos taurus, UniProt P10730)
T1 construct: specific receptor sites on BASM or BAE cells; endogenous in cells; host or cells: cultured BASM and BAE cells
T1 sequence (P10730 42-537): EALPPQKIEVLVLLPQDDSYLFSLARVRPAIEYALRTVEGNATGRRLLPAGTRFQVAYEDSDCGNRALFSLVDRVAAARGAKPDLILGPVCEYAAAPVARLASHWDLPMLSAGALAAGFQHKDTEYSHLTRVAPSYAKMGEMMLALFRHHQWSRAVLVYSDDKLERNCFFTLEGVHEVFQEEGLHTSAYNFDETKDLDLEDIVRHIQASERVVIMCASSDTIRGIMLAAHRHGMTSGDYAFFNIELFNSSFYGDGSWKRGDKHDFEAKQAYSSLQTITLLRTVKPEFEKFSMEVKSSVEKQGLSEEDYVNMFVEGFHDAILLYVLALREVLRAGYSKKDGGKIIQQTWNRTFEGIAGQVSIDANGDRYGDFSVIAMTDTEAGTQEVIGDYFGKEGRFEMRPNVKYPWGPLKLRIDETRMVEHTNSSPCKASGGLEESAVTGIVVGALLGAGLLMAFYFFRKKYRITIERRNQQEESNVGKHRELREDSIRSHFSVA
Test: Competitive displacement receptor binding of (125I)-rANP(126-150) on cultured cells
Parameters: species or system bovine
From the text: Analogous "competitive displacement" receptor binding assays are considered commonplace in the art for examining specific ligand-receptor interactions.
Assuming these ANP analogs act at one or more ANP receptor sites, then increased receptor affinity should reflect increased biological potency.

[1] = concentration of unlabeled peptide displacing 50% of maximal binding of 0.5 nM (125I)-rANP(126-150), BASM or BAE cells

| Structure (SMILES) | Ki(app) [1] | further results |
| --- | --- | --- |
| CC[C@H](C)[C@H](NC(=O)[C@H](CCCNC(=N)N)NC(=O)[C@H](CC(=O)O)NC(=O)[C@@H](NC(=O)[C@H](CCCNC(=N)N)NC(=O)Cc1ccc(NC(=O)c2ccc3ccccc3c2)cc1)[C@@H](C)CC)C(N)=O [AP790] (2Naphthoyl-[X1]RIDRI-NH2) | 5.2 nM | – |
| CC[C@H](C)[C@H](NC(=O)[C@H](CCCNC(=N)N)NC(=O)CNC(=O)CNC(=O)Cc1ccc2ccccc2c1)C(=O)N[C@@H](CC(=O)O)C(=O)N[C@@H](CCCNC(=N)N)C(=O)N[C@@H](CC(C)C)C(N)=O [AP332, (2-NA)--G--G--R--I--D--R--L--NH2] ({Acetyl(2-naphthyl)}-GGRIDRL-NH2) | 44.2 nM | – |
| CC[C@H](C)[C@H](NC(=O)[C@H](CCCNC(=N)N)NC(=O)[C@H](CC(=O)O)NC(=O)[C@@H](NC(=O)[C@H](CCCNC(=N)N)NC(=O)CCCNC(=O)COc1ccc2ccccc2c1)[C@@H](C)CC)C(=O)NCC(=O)N[C@@H](C)C(N)=O [AP576, (2-NOA)--NH(CH2)3 CO--R--I--D--R--I--G--A--NH2] ({Acetyl(2-naphthyloxy)-GABA}-RIDRIGA-NH2) | 16.0 nM | – |
| CC[C@H](C)[C@H](NC(=O)[C@H](CCCNC(=N)N)NC(=O)[C@H](CC(=O)O)NC(=O)[C@@H](NC(=O)[C@H](CCCNC(=N)N)NC(=O)C1CCN(C(=O)Cc2ccc3ccccc3c2)CC1)[C@@H](C)CC)C(N)=O [AP538] ({Acetyl(2-naphthyl)-Inp}-RIDRI-NH2) | 9.9 nM | – |
| CC[C@H](C)[C@H](NC(=O)[C@H](CCCNC(=N)N)NC(=O)[C@H](CC(=O)O)NC(=O)[C@@H](NC(=O)[C@H](CCCNC(=N)N)NC(=O)c1ccc(NC(=O)COc2ccc3ccccc3c2)cc1)[C@@H](C)CC)C(N)=O [AP791] ({Acetyl(2-naphthyloxy)-4Abz}-RIDRI-NH2) | 31.1 nM | – |
| CC[C@H](C)[C@H](NC(=O)[C@H](CCCNC(=N)N)NC(=O)[C@H](CC(=O)O)NC(=O)[C@@H](NC(=O)[C@H](CCCNC(=N)N)NC(=O)CNC(=O)CNC(=O)Cc1ccc2ccccc2c1)C(C)(C)C)C(N)=O [AP591, (2-NA)--G--G--R--tBuG--D--R--I--NH2] ({Acetyl(2-naphthyl)}-GGR[Tle]DRI-NH2) | 14.0 nM | – |
| CC[C@H](C)[C@H](NC(=O)[C@H](CCCNC(=N)N)NC(=O)[C@H](CC(=O)O)NC(=O)[C@@H](NC(=O)[C@H](CCCNC(=N)N)NC(=O)CNC(=O)CNC(=O)CC12CC3CC(CC(C3)C1)C2)[C@@H](C)CC)C(N)=O [AP309, (1-AA)--G--G--R--I--D--R--I--NH2] ({Acetyl(1-adamantyl)}-GGRIDRI-NH2) | 30.0 nM | – |
| CC[C@H](C)[C@H](NC(=O)[C@H](CCCNC(=N)N)NC(=O)[C@H](CC(=O)O)NC(=O)[C@@H](NC(=O)[C@H](CCCNC(=N)N)NCC1CCN(C(=O)Cc2ccc3ccccc3c2)CC1)[C@@H](C)CC)C(N)=O [AP704] (H-[X8](Acetyl(2-naphthyl))IDRI-NH2) | 17.0 nM | – |
| CC[C@H](C)[C@H](NC(=O)[C@H](CCCNC(=N)N)NC(=O)[C@H](CC(=O)O)NC(=O)[C@@H](NC(=O)[C@H](CCCNC(=N)N)NC(=O)CCCCNC(=O)Cc1ccc2ccccc2c1)[C@@H](C)CC)C(N)=O [AP324, (2-NA)--NH(CH2)4 CO--R--I--D--R--I--NH2] ({Acetyl(2-naphthyl)-Ava}-RIDRI-NH2) | 48.5 nM | – |
| CC[C@H](C)[C@H](NC(=O)[C@H](CCCNC(=N)N)NC(=O)[C@H](CC(=O)O)NC(=O)[C@@H](NC(=O)[C@H](CCCNC(=N)N)NC(=O)CNC(=O)CNC(=O)Cc1ccc2ccccc2c1)c1ccccc1)C(N)=O [AP575, (2-NA)--G--G--R--Phg--D--R--I--NH2] ({Acetyl(2-naphthyl)}-GGR[Phg]DRI-NH2) | 194.0 nM | receptor binding / activity as judged by Ki, in words: very low, if any, activity |
| CCNC(=O)CNC(=O)[C@@H](NC(=O)[C@H](CCCNC(=N)N)NC(=O)[C@H](CC(=O)O)NC(=O)[C@@H](NC(=O)[C@H](CCCNC(=N)N)NC(=O)CCCCNC(=O)Cc1ccc2ccccc2c1)[C@@H](C)CC)[C@@H](C)CC [AP530, (2-NA)--NH(CH2)4 CO--R--I--D--R--I--G--NH--(ethyl)] ({Acetyl(2-naphthyl)-Ava}-RIDRIG-NHEt) | 50.5 nM | – |
| CC[C@H](C)[C@H](NC(=O)[C@H](CCCNC(=N)N)NC(=O)[C@H](CC(=O)O)NC(=O)[C@@H](NC(=O)[C@H](CCCNC(=N)N)NC(=O)Cc1ccc(NC(=O)COc2ccc3ccccc3c2)cc1)[C@@H](C)CC)C(N)=O [AP792] ({Acetyl(2-naphthyloxy)}-[X1]RIDRI-NH2) | 6.3 nM | – |
| CC[C@H](C)[C@H](NC(=O)[C@H](CCCNC(=N)N)NC(=O)CNC(=O)CNC(=O)Cc1ccc2ccccc2c1)C(=O)N[C@@H](CC(=O)O)C(=O)N[C@@H](CCCNC(=N)N)C(=O)N[C@@H](CC(C)(C)C)C(N)=O [AP594, (2-NA)--G--G--R--I--D--R--tBuA--NH2] ({Acetyl(2-naphthyl)}-GGRIDR[tBuAla]-NH2) | 15.0 nM | – |
| CC[C@H](C)[C@H](NC(=O)[C@H](CCCNC(=N)N)NC(=O)[C@H](CC(=O)O)NC(=O)[C@@H](NC(=O)[C@H](CCCNC(=N)N)NC(=O)CNC(=O)CNC(=O)CC1CCCCC1)[C@@H](C)CC)C(N)=O [AP334, (CHA)--G--G--R--I--D--R--I--NH2] (Cyclohexylacetyl-GGRIDRI-NH2) | 92.8 nM | – |
| CC[C@H](C)[C@H](NC(=O)[C@H](CCCNC(=N)N)NC(=O)CNC(=O)CNC(=O)Cc1ccc2ccccc2c1)C(=O)N[C@@H](CC(=O)O)C(=O)N[C@@H](CCCNC(=N)N)C(=O)N1CCC[C@H]1C(N)=O [AP519, (2-NA)--G--G--R--I--D--R--P--NH2] ({Acetyl(2-naphthyl)}-GGRIDRP-NH2) | > 400 nM | receptor binding / activity as judged by Ki, in words: very low, if any, activity |
| CC[C@H](C)[C@H](NC(=O)[C@H](CCCNC(=N)N)NC(=O)CNC(=O)CNC(=O)Cc1ccc2ccccc2c1)C(=O)N[C@@H](CC(=O)O)C(=O)N[C@@H](CCCNC(=N)N)C(=O)N[C@H](Cc1ccccc1)C(N)=O [AP537, (2-NA)--G--G--R--I--D--R--F^ --NH2)] ({Acetyl(2-naphthyl)}-GGRIDR[dF]-NH2) | > 160 nM | – |
| CC[C@H](C)[C@H](NC(=O)[C@H](CCCNC(=N)N)NC(=O)[C@H](CC(=O)O)NC(=O)[C@@H](NC(=O)[C@H](CCCNC(=N)N)NC(=O)C1CCN(CC(=O)c2ccc3ccccc3c2)CC1)[C@@H](C)CC)C(N)=O [AP574] (X7-RIDRI-NH2) | 26.5 nM | – |
| CC[C@H](C)[C@H](NC(=O)[C@H](CCCNC(=N)N)NC(=O)[C@H](CC(=O)O)NC(=O)[C@@H](NC(=O)[C@H](CCCCN)NC(=O)Cc1ccc(NC(=O)c2ccc3ccccc3c2)cc1)[C@@H](C)CC)C(N)=O [AP802] (2Naphthoyl-[X1]KIDRI-NH2) | 8.7 nM | – |
| CC[C@H](C)CNC(=O)[C@H](CCCNC(=N)N)NC(=O)[C@H](CC(=O)O)NC(=O)[C@@H](NC(=O)[C@H](CCCNC(=N)N)NC(=O)Cc1ccc(NC(=O)COc2ccc3ccccc3c2)cc1)[C@@H](C)CC [AP813] ({Acetyl(2-naphthyloxy)}-[X1]RIDR-{NH(2S-methylbutyl)}) | 56.0 nM | – |
| CC[C@H](C)[C@@H]1NC(=O)[C@H](CCCNC(=N)N)NC(=O)[C@H](CC(=O)O)NC(=O)[C@H]([C@@H](C)CC)NC(=O)[C@H](CCCNC(=N)N)NC(=O)CNC(=O)CNC(=O)[C@H](Cc2ccccc2)NC(=O)[C@@H](NC(=O)[C@H](CO)NC(=O)[C@H](CO)NC(=O)[C@@H](N)CCCNC(=N)N)CSSC[C@@H](C(=O)N[C@@H](CC(N)=O)C(=O)N[C@@H](CO)C(=O)N[C@@H](Cc2ccccc2)C(=O)N[C@@H](CCCNC(=N)N)C(=O)N[C@@H](Cc2ccc(O)cc2)C(=O)O)NC(=O)CNC1=O [AP21] (H-RSSCFGGRIDRIGCNSFRY-OH; disulfide 4-14) | – | Ki (Table 2A, unit not given, in nM): 15.15 |
| CC[C@H](C)[C@H](NC(=O)[C@H](CCCNC(=N)N)NC(=O)[C@H](CC(=O)O)NC(=O)[C@@H](NC(=O)[C@H](CCCNC(=N)N)NC(=O)CNC(=O)CNC(=O)CCc1ccccc1)[C@@H](C)CC)C(=O)NCC(=O)N[C@@H](C)C(N)=O [AP130, (desNH2 --F)--G--G--R--I--D--R--I--G--A--NH2] (Hydrocinnamoyl-GGRIDRIGA-NH2) | 8.8 nM | – |
| CC[C@H](C)[C@H](NC(=O)[C@H](CCCNC(=N)N)NC(=O)[C@H](CC(=O)O)NC(=O)[C@H](CC[S+](C)[O-])NC(=O)[C@H](CCCNC(=N)N)NC(=O)CNC(=O)CNC(=O)Cc1ccc2ccccc2c1)C(N)=O (stereo partly drawn) [AP515, (2-NA)--G--G--R--MSO--D--R--I--NH2] ({Acetyl(2-naphthyl)}-GGR[Met(O)]DRI-NH2) | > 400 nM | receptor binding / activity as judged by Ki, in words: very low, if any, activity |
| CC[C@H](C)[C@H](NC(=O)[C@H](Cc1ccc(O)cc1)NC(=O)[C@@H](NC(=O)[C@H](CCCNC(=N)N)NC(=O)[C@@H](N)CC(=O)O)C(C)C)C(=O)N[C@@H](Cc1c[nH]cn1)C(=O)N1CCC[C@H]1C(=O)N[C@@H](Cc1ccccc1)C(=O)O [angiotensin II, reference compound] | – | Ki(app) (specificity table, unrelated peptide hormones, unit inferred): > 500 nM |
| CC[C@H](C)[C@H](NC(=O)[C@H](CCCNC(=N)N)NC(=O)[C@H](CC(=O)O)NC(=O)[C@@H](NC(=O)[C@H](CCCNC(=N)N)NC(=O)Cc1ccc(NC(=O)Cc2ccc3ccccc3c2)cc1)[C@@H](C)CC)C(N)=O [AP564] ({Acetyl(2-naphthyl)}-[X1]RIDRI-NH2) | 10.1 nM | – |
